Tests used:
[1] = target: T1, 3',5'-cyclic-AMP phosphodiesterase 4D (Homo sapiens, UniProt Q08499); assay: Inhibition of recombinant full-length PDE4D2 (unknown origin) using FAM-cAMP as substrate preincubated for 15 mins followed by substrate addition and measured after 30 mins by plate reader assay
RAW264.7 [2] = assay: Anti-inflammatory activity against LPS induced mouse RAW264.7 cells assessed as reduction in TNFalpha secretion at 10 uM incubated for 24 hrs by ELISA; type: functional
[3] = target: T1, 3',5'-cyclic-AMP phosphodiesterase 4D; assay: Inhibition of recombinant full-length PDE4D2 (unknown origin) at 1 uM using FAM-cAMP as substrate preincubated for 15 mins followed by substrate addition and measured after 30 mins by plate reader assay relative to control; conditions: time 45.0 min
RAW264.7 [4] = assay: Anti-inflammatory activity against LPS induced mouse RAW264.7 cells assessed as reduction in TNFalpha secretion incubated for 24 hrs by ELISA; type: functional, cell-based; conditions: RAW264.7, 24 h
RAW264.7 [5] = assay: Anti-inflammatory activity against LPS induced mouse RAW264.7 cells assessed as reduction in IL-6 secretion incubated for 24 hrs by ELISA; type: functional, cell-based; conditions: RAW264.7, 24 h
[6] = Cytotoxicity against mouse RAW264.7 cells incubated for 24 hrs by CCK8 assay; type: toxicity, cell-based
HaCaT = assay: Anti-inflammatory activity against M5 induced human HaCaT cells assessed as reduction in TNFalpha secretion incubated for 24 hrs by ELISA; type: functional, cell-based
[7] = Cytotoxicity against human HaCaT cells incubated for 24 hrs by CCK8 assay; type: toxicity, cell-based

T1 sequence (Q08499 whole entry): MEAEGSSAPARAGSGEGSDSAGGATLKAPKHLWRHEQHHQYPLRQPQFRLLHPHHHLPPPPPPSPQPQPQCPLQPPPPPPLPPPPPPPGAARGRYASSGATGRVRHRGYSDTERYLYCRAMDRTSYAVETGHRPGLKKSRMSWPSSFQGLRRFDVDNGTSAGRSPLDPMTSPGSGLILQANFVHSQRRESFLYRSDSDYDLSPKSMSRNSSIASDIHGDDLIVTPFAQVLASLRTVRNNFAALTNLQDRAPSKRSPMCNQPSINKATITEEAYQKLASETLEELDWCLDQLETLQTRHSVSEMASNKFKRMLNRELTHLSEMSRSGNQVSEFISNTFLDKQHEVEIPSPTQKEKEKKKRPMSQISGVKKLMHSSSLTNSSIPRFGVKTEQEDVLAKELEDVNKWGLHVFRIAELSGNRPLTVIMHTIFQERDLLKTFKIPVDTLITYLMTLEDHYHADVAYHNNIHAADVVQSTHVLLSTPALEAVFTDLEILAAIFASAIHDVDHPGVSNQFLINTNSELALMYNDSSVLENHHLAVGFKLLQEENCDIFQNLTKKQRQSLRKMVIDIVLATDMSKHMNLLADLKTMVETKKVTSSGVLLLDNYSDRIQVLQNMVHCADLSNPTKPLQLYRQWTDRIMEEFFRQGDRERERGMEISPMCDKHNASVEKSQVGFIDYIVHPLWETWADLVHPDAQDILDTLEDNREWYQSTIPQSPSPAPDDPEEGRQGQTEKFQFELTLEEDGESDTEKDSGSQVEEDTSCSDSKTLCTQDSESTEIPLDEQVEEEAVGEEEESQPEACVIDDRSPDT

SMILES	inhibition [3]	inhibition at 10 µM (RAW264.7 [2])	also measured
O=C(Nc1ccncc1)c1csc(-c2ccc(OC(F)F)c(OCC3CC3)c2)n1	–	25.6%	IC50 [1]: 77.2 nM
O=C(O)c1csc(-c2ccc(OC(F)F)c(OCC3CC3)c2)n1	78.5%	22.9%	–
O=C(NCc1cccc(F)c1F)c1csc(-c2ccc(OC(F)F)c(OCC3CC3)c2)n1	–	24.8%	IC50 [1]: 25 nM
O=C(NCc1ccccc1)c1csc(-c2ccc(OC(F)F)c(OCC3CC3)c2)n1	–	29%	IC50 [1]: 25.9 nM
O=C(Nc1nc2ccccc2s1)c1csc(-c2ccc(OC(F)F)c(OCC3CC3)c2)n1	75.3%	21.7%	–
O=C(NCc1c(F)cc(F)cc1F)c1cc2nccc(-c3ccc(OC(F)F)c(OCC4CC4)c3)n2n1	38.4%	23.3%	–
O=C(NC1CCCCC1)c1cnn2c(-c3ccc(OC(F)F)c(OCC4CC4)c3)ccnc12	< 73.1%	–	–
O=C(Nc1nccs1)c1cc2nccc(-c3ccc(OC(F)F)c(OCC4CC4)c3)n2n1	86.1%	25.8%	–
O=C(NCC1CCOCC1)c1cnn2c(-c3ccc(OC(F)F)c(OCC4CC4)c3)ccnc12	< 73.1%	–	–
O=C(Nc1ccccc1)c1csc(-c2ccc(OC(F)F)c(OCC3CC3)c2)n1	72.4%	26.5%	–
O=C(NCc1ccc(F)cc1F)c1csc(-c2ccc(OC(F)F)c(OCC3CC3)c2)n1	79.1%	17.6%	–
O=C(NCc1cccc(F)c1F)c1cc2nccc(-c3ccc(OC(F)F)c(OCC4CC4)c3)n2n1	64.6%	13.7%	–
Cn1cc(NC(=O)c2cc3nccc(-c4ccc(OC(F)F)c(OCC5CC5)c4)n3n2)cn1	46.7%	15.4%	–
O=C(NCc1ccc2ccccc2c1)c1csc(-c2ccc(OC(F)F)c(OCC3CC3)c2)n1	78%	14%	–
O=C(NCc1ccc(F)cc1F)c1cc2nccc(-c3ccc(OC(F)F)c(OCC4CC4)c3)n2n1	–	13.6%	IC50 [1]: 558 nM
O=C(NCc1ccccc1)c1cc2nccc(-c3ccc(OC(F)F)c(OCC4CC4)c3)n2n1	–	19.6%	IC50 [1]: 546 nM
O=C(NCC1CCOCC1)c1cc2nccc(-c3ccc(OC(F)F)c(OCC4CC4)c3)n2n1	62.7%	38.6%	–
O=C(NCc1c(F)cc(F)cc1F)c1csc(-c2ccc(OC(F)F)c(OCC3CC3)c2)n1	–	34%	IC50 [1]: 25.7 nM
O=C(NCc1c(F)cccc1F)c1cc2nccc(-c3ccc(OC(F)F)c(OCC4CC4)c3)n2n1	41.9%	27.9%	–
O=C(Nc1nccs1)c1csc(-c2ccc(OC(F)F)c(OCC3CC3)c2)n1	64.8%	14.6%	–
O=C(NCc1ncccn1)c1cc2nccc(-c3ccc(OC(F)F)c(OCC4CC4)c3)n2n1	70.7%	25.1%	–
O=C(NCc1cc(F)ccc1F)c1cc2nccc(-c3ccc(OC(F)F)c(OCC4CC4)c3)n2n1	42.6%	16.3%	–
O=C(NCc1c(F)cccc1F)c1csc(-c2ccc(OC(F)F)c(OCC3CC3)c2)n1	–	–	IC50 [1]: 9.36 nM; IC50 (RAW264.7 [4]): 48.4 µM; IC50 (RAW264.7 [5]): 57 µM; CC50 at 24 h [6]: > 50 µM; IC50 (HaCaT): 22.6 µM; CC50 at 24 h [7]: > 50 µM

Further lines, with some results ahead:

inhibition [3]	SMILES	inhibition at 10 µM (RAW264.7 [2])	also measured
< 73.1%	O=C(NCc1cccnc1)c1cnn2c(-c3ccc(OC(F)F)c(OCC4CC4)c3)ccnc12	–	–
< 73.1%	COc1ccc(CNC(=O)c2cnn3c(-c4ccc(OC(F)F)c(OCC5CC5)c4)ccnc23)cn1	–	–
38.3%	O=C(NCc1ccc2ccccc2c1)c1cc2nccc(-c3ccc(OC(F)F)c(OCC4CC4)c3)n2n1	12.4%	–
< 73.1%	O=C(Nc1ccc2ncsc2c1)c1cnn2c(-c3ccc(OC(F)F)c(OCC4CC4)c3)ccnc12	–	–
< 73.1%	CCC(CC)NC(=O)c1cnn2c(-c3ccc(OC(F)F)c(OCC4CC4)c3)ccnc12	–	–
< 73.1%	O=C(NCc1ccc(F)cc1F)c1cnn2c(-c3ccc(OC(F)F)c(OCC4CC4)c3)ccnc12	–	–
< 73.1%	O=C(NC1CC1)c1cnn2c(-c3ccc(OC(F)F)c(OCC4CC4)c3)ccnc12	–	–
89.2%	O=C(Nc1ccccc1)c1cc2nccc(-c3ccc(OC(F)F)c(OCC4CC4)c3)n2n1	16.5%	–
< 73.1%	O=C(NCc1c(F)cc(F)cc1F)c1cnn2c(-c3ccc(OC(F)F)c(OCC4CC4)c3)ccnc12	–	–
< 73.1%	O=C(Nc1ccc2cc[nH]c2c1)c1cnn2c(-c3ccc(OC(F)F)c(OCC4CC4)c3)ccnc12	–	–
< 73.1%	O=C(Nc1ccncc1)c1cnn2c(-c3ccc(OC(F)F)c(OCC4CC4)c3)ccnc12	–	–
< 73.1%	O=C(NCc1ccccc1)c1cnn2c(-c3ccc(OC(F)F)c(OCC4CC4)c3)ccnc12	–	–
< 73.1%	O=C(NCc1cccc(F)c1F)c1cnn2c(-c3ccc(OC(F)F)c(OCC4CC4)c3)ccnc12	–	–
< 73.1%	CC(C)(C)CNC(=O)c1cnn2c(-c3ccc(OC(F)F)c(OCC4CC4)c3)ccnc12	–	–
< 73.1%	CC(C)CNC(=O)c1cnn2c(-c3ccc(OC(F)F)c(OCC4CC4)c3)ccnc12	–	–
< 73.1%	O=C(NCc1c(F)cccc1F)c1cnn2c(-c3ccc(OC(F)F)c(OCC4CC4)c3)ccnc12	–	–
< 73.1%	Cn1cc(NC(=O)c2cnn3c(-c4ccc(OC(F)F)c(OCC5CC5)c4)ccnc23)cn1	–	–
< 73.1%	O=C(NCc1ccc2ccccc2c1)c1cnn2c(-c3ccc(OC(F)F)c(OCC4CC4)c3)ccnc12	–	–
< 73.1%	O=C(Nc1nccs1)c1cnn2c(-c3ccc(OC(F)F)c(OCC4CC4)c3)ccnc12	–	–
< 73.1%	O=C(NCc1cc(F)ccc1F)c1cnn2c(-c3ccc(OC(F)F)c(OCC4CC4)c3)ccnc12	–	–
49.3%	O=C(NCc1cccnc1)c1cc2nccc(-c3ccc(OC(F)F)c(OCC4CC4)c3)n2n1	6.6%	–
< 73.1%	O=C(Nc1ccccc1)c1cnn2c(-c3ccc(OC(F)F)c(OCC4CC4)c3)ccnc12	–	–

From ChEMBL document CHEMBL6127131, “Design, Synthesis, and Biological Evaluation of New Selective PDE4 Inhibitors for Topical Treatment of Psoriasis” (J Med Chem, 2024)
